In patent publication US20120059162A1, “FUSED IMIDAZOLE DERIVATIVE HAVING TTK INHIBITORY ACTION” (Oncotherapy Science, Inc., priority 2009, published 2012) one finds IC50 data, which are given here for 20 compounds.

The structures appear in SMILES notation. Read-outs that look alike come from different tables or passages of the source. Bounds are passed on as bounds.

One test deals with A549. Kind of test: A549 assay: screening of cancer cell growth inhibiting compound. It counts as cell-based. To be noted: Homo sapiens, A549 cells, read-out: A549 IC50. The essentials:
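A549 cells (1×10^4/ml) in D-MEM with 10% FBS were pre-incubated one day at 37 °C, then exposed to compound dilutions for three further days. Viable cell number read by WST-8 (1–4 hours), absorbance 450 nm (reference 620 nm); inhibition calculated relative to untreated wells.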

A further test has as its target T1, TTK (Homo sapiens, UniProt P33981).
T1 sequence (P33981 1-857): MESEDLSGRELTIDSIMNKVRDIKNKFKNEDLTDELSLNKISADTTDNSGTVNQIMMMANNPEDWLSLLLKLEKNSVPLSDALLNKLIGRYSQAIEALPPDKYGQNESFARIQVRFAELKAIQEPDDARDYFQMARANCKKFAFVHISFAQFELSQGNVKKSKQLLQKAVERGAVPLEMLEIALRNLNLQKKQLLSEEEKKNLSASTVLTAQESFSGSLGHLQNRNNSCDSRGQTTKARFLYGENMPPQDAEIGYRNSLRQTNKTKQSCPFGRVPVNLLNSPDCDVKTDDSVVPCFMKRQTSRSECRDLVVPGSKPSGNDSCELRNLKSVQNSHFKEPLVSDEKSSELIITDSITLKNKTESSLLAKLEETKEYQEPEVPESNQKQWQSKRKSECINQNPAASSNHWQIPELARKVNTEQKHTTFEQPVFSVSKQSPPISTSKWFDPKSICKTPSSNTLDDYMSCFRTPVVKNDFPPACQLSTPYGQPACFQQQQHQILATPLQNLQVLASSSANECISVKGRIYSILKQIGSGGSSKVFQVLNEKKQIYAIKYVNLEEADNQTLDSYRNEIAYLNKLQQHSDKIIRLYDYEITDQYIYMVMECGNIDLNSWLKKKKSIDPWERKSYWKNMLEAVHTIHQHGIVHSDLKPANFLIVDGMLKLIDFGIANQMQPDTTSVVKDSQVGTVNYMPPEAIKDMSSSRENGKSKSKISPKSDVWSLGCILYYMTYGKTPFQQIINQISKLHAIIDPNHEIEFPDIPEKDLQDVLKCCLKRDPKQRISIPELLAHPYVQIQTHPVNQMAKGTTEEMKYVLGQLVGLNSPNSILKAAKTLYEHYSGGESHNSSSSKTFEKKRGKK
Nature of the test: TTK assay: screening of TTK kinase activity suppressing action using p38 MAPK peptide. The class given is biochemical. To be noted: read-out: TTK IC50. The essentials: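 TTK (4 μg/ml in enzyme solution) mixed with p38 MAPK peptide and ATP (each 60 μM in substrate solution) in Tris-HCl pH 7.5 with MgCl2, DTT, Na3VO4, β-glycerophosphate, BSA. Reaction aliquot captured on NeutrAvidin plate, detected with Eu-labelled anti-mouse IgG by time-resolved fluorescence; inhibition relative to no-compound signal.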

In general, IC50 refers to the concentration that gives 50% inhibition. As for `CC(C)ONc1cc(NC2CCCCC2)nn2c(-c3ccc(C(=O)NC4CC4)cc3)cnc12` [Example 2-161], the IC50 is 500 to 1000 nM in the test on A549 (72 h, three days, WST-8) and 5.6 nM at TTK (p38 MAPK peptide substrate).

As for `CC(CNc1cc(NC2CCCCC2)nn2c(-c3ccc(C(=O)NC4CC4)cc3)cnc12)C(F)(F)F` (stereo not shown) [Example 2-162], the IC50 in the test with A549 (72 h, three days, WST-8) is 50 to 500 nM; at TTK (p38 MAPK peptide substrate), 3.6 nM.

With `O=C(NC1CC1)c1ccc(-c2cnc3c(NC[C@H]4CC[C@H](O)CC4)cc(NC4CCCCC4)nn23)cc1` [Example 2-164], the IC50 with A549 (72 h, three days, WST-8) was 50 to 500 nM; on TTK (p38 MAPK peptide substrate), 3.3 nM.

For `O=C(NC1CC1)c1ccc(-c2cnc3c(NCc4ccc(=O)[nH]c4)cc(NC4CCCCC4)nn23)cc1` [Example 2-165], the IC50 was 1000 to 10000 nM with A549 (72 h, three days, WST-8) and 5.6 nM at TTK (p38 MAPK peptide substrate).

`COC(C)CNc1cc(NC2CCCCC2)nn2c(-c3ccc(C(=O)NC4CC4)cc3)cnc12` (stereo not shown) [Example 2-166]: the IC50 was 50 to 500 nM with A549 (72 h, three days, WST-8) and 4.5 nM at TTK (p38 MAPK peptide substrate).

In the case of `O=C(NC1CC1)c1ccc(-c2cnc3c(NCC4CCCO4)cc(NC4CCCCC4)nn23)cc1` (stereo not shown) [Example 2-167], the IC50 in the test with A549 (values given as IC50 intervals) was 50 to 500 nM; on TTK, 3.9 nM.

Take `CC(CO)CNc1cc(NC2CCCCC2)nn2c(-c3ccc(C(=O)NC4CC4)cc3)cnc12` (stereo not shown) [Example 2-168]: the IC50 in the test on A549 (values given as IC50 intervals) is 50 to 500 nM; on TTK, 3.3 nM.

With `O=C(NC1CC1)c1ccc(-c2cnc3c(NCC4(O)CCOCC4)cc(NC4CCCCC4)nn23)cc1` [Example 2-169], the values for the 50% inhibitory concentration (IC50) with A549 (values given as IC50 intervals) and on TTK were 50 to 500 nM and 7.2 nM, respectively.

For `CC1(Oc2cc(NCC3CCOCC3)c3ncc(-c4ccc(C(=O)NC5CC5)cc4)n3n2)CCCCC1` [Example 2-171, N-Cyclopropyl-4-(6-(1-methylcyclohexyloxy)-8-((tetrahydro-2H-pyran-4-yl)methylamino)imidazo[1,2-b]pyridazin-3-yl)benzamide], the results for the IC50 in the test with A549 (values given as IC50 intervals) and at TTK were 50 to 500 nM and 3.5 nM, respectively.

Take `COc1cc(NCC2CCOCC2)c2ncc(-c3ccc(C(=O)NC4CC4)cc3)n2n1` [Example 2-172]: the IC50 with A549 (values given as IC50 intervals) was 500 to 1000 nM; at TTK it was 20.3 nM.

With `O=C(NC1CC1)c1ccc(-c2cnc3c(NCC4CCOCC4)cc(OC4CCCC4)nn23)cc1` [Example 2-173], the IC50 in the test with A549 (values given as IC50 intervals) was 50 to 500 nM; on TTK it was 5.4 nM.

For the compound `CC(Oc1cc(NCC2CCOCC2)c2ncc(-c3ccc(C(=O)NC4CC4)cc3)n2n1)c1ccccc1` (stereo not shown) [Example 2-174], the IC50 was 50 to 500 nM in the test on A549 (values given as IC50 intervals) and 14.1 nM on TTK.

Regarding `COCCOc1cc(NCC2CCOCC2)c2ncc(-c3ccc(C(=O)NC4CC4)cc3)n2n1` [Example 2-175], the IC50 is 50 to 500 nM in the test on A549 (values given as IC50 intervals) and 11.4 nM on TTK.

Take `N#Cc1ccc(Oc2cc(NCC3CCOCC3)c3ncc(-c4ccc(C(=O)NC5CC5)cc4)n3n2)cc1` [Example 2-177]: the IC50 in the test with A549 (values given as IC50 intervals) was 50 to 500 nM; on TTK it was 14.3 nM.

As for `CC(C)Oc1cc(NCC2CCOCC2)c2ncc(-c3ccc(C(=O)NC4CC4)cc3)n2n1` [Example 2-178], the values for the 50% inhibitory concentration (IC50) in the test on A549 (values given as IC50 intervals) and at TTK were 50 to 500 nM and 7.1 nM, respectively.

Take `COc1ccc(Oc2cc(NCC3CCOCC3)c3ncc(-c4ccc(C(=O)NC5CC5)cc4)n3n2)cc1` [Example 2-179]: the figures for the IC50 in the test with A549 (values given as IC50 intervals) and on TTK were ≤ 50 nM and 3.7 nM, respectively.

Regarding `O=C(NC1CC1)c1ccc(-c2cnc3c(NCC4CCOCC4)cc(OC4CCNCC4)nn23)cc1` [Example 2-180], the IC50 is 1000 to 10000 nM in the test on A549 (values given as IC50 intervals) and 12.2 nM at TTK.

Take `O=C(NC1CC1)c1ccc(-c2cnc3c(NCC4CCOCC4)cc(OC4CCCCCC4)nn23)cc1` [Example 2-181]: the IC50 with A549 (values given as IC50 intervals) was 50 to 500 nM; at TTK, 10.2 nM.

As for `CC(C)(C)Oc1cc(NCC2CCOCC2)c2ncc(-c3ccc(C(=O)NC4CC4)cc3)n2n1` [Example 2-182], the concentration for half-maximal inhibition (IC50) is 50 to 500 nM in the test on A549 (values given as IC50 intervals) and 8.4 nM on TTK.

Regarding `O=C(NC1CC1)c1ccc(-c2cnc3c(NCC4CCOCC4)cc(OCC(F)(F)F)nn23)cc1` [Example 2-183], the IC50 is 50 to 500 nM in the test on A549 (values given as IC50 intervals) and 5.7 nM at TTK.
